Source: patent publication US20170010280A1, “GDF15 AS BIOMARKER FOR DIAGNOSING MITOCHONDRIAL DISEASES” (TOKYO METROPOLITAN GERIATRIC HOSPITAL AND INSTITUTE OF …, priority 2014, published 2017)
Read-outs that look alike come from different tables or passages of the source.

Assays:
2SD cells [1] = test: metabolome analysis of energy metabolism; type: cell-based, human; details: 10 mM, 4 hours after treatment
Experimental: (§1) (ii) Metabolome analysis were performed using 2SA cells and 2SD cells. […] The energy metabolism disorder has become remarkable 4 hours after treatment of high concentration of lactic acid (10 mM) in 2SD cells, and the phenomenon was not observed after treatment of high concentration of pyruvic acid (10 mM). The energy metabolism disorder was not observed after treatment of high concentration of lactic acid in 2SA cells. Based on the results, we came up with the forecast that the genes expressed in 2SD cells with energy metabolism disorders in a high concentration of lactic acid may be new biomarkers that reflects the energy metabolic disorder of mitochondrial disease patients.

2SA cells (control cell) [2] = test: metabolome analysis of energy metabolism; type: cell-based, human; details: high concentration
Experimental: as §1

2SA cells (control cell) [3] = details: high concentration, non-patent document 1; cited from earlier work
[4] = system: 2SD cells (mitochondrial disease model cell); test: exhaustive gene expression analysis (microarray) after lactate or pyruvate treatment; type: cell-based, human
Source text: (i) Cybrid cells established from myoblasts in MELAS (mitochondrial myopathy, encephalopathy, lactic acidosis, and stroke-like episodes), which is relatively high incident among mitochondrial diseases patient and human osteosarcoma 143B cells were used in the experiment. Specifically, myoblast cells from MELAS patients lacking the cell nuclei were fused with human osteosarcoma-derived 143B cells lacking mitochondrial DNA (mtDNA). From some fused cell lines, a cell line without m.3243A>G mutation in mtDNA was used as control cell (2SA) and a cell line with m.3243A>G mutation with 94% was used as mitochondrial disease model cell (2SD) (the mutation ratio is not 100%, because mitochondria is heteroplasmy). Cells were cultured in high-glucose Dulbecco's modified Eagle's medium (DMEM) supplemented with 10% FBS, 1 mM sodium pyruvate, and 0.4 mM uridine at 37° C. under a humidified atmosphere of 5% CO2. Total RNA was isolated from cells by using a miRNeasy mini kit (Qiagen, Venlo, Netherlands). One hundred nanograms of total RNA was labeled and amplified with a low input quick amp labeling kit (Agilent Technologies, Santa Clara, Calif., USA) used according to the manufacturer's instructions. The labeled cRNA was hybridized to the Agilent SurePrint G3 Human GE 8×60K Microarray in a rotating hybridization oven at 10 rpm for 20 h at 65° C. After hybridization, the microarrays were washed according to the manufacturer's instructions and scanned on an Agilent DNA Microarray Scanner with Scan Control software. The resulting images were processed, and raw data were collected by using Agilent Feature Extraction software. Expression data were analyzed by using GeneSpring GX 11 (Agilent Technologies). The signal intensity of each probe was normalized by a percentile shift, in which each value was divided by the 75th percentile of all values in its array. For pairwise comparison analysis, only the probes that had expression flags present under at least one condition were considered. The list was analyzed with Ingenuity Pathways Analysis software (Ingenuity Systems, Redwood, Calif., USA). (i) 2SA cells and 2SD cells were collected at 0, 4, and 8 hours after treatment of 10 mM lactate or 10 mM of pyruvate. After RNA were extracted from these cells, exhaustive gene expression analysis were performed using microarray analysis.

2SD cells [5] = test: quantitative RT-PCR of GDF15, INHBE and IL1A expression; type: cell-based, human; details: 10 mM, 4 and 8 hours after treatment
Experimental: Total RNA was isolated from cells with miRNeasy-minikit (Qiagen), and reverse transcribed to cDNA with a High Capacity cDNA Reverse Transcription Kit (Life Technologies, Carlsbad, Calif., USA) used according to the manufacturer's protocols. Real-time PCR was performed on the StepOnePlus Real-Time PCR System (Life Technologies) using Power SYBR Green PCR Master Mix. 18S rRNA gene was used as an internal control for normalization. The sequences of primers are listed in Table 1(The numbers in the sequence listing, SEQ ID NO: 1 to 1 stage left, SEQ ID NO: 2 to the right sequentially subjected to SEQ ID NO: 8.).
(iv) In order to determine the expression level of GDF15, INHBE and IL1A in cells, quantitative RT-PCRs were performed. The expression level of GDF15, INHBE, and IL1A were increased at 4 and 8 hours after treatment with 10 mM lactate in 2SD cells, otherwise they were not changed after treatment with 10mM pyruvate. The expression level of GDF15 was higher in 2SD cells than in 2SA cells at 0 hour. On the results, the reproducibility of the microarray data were confirmed. GDF15, INHBE, and IL1A were identified as biomarkers for mitochondrial diseases (FIG. 2 to FIG. 4).

2SD cells [6] = test: ELISA of GDF15 concentration in culture medium; type: cell-based, human; details: 10 mM lactate, medium cultured 24 h
Experimental: Cells were placed on 60-mm dishes 1 day before replacing the medium with fresh medium. Conditioned medium cultured for 24 h was collected, and the particulates were removed by centrifugation (at 500×g for 10 min, at 10,000×g for 30 min). The GDF15 and INHBE concentrations in the supernatants and in the sera of patients were determined in duplicate by using a Human GDF-15 Immunoassay (DGD150, R&D Systems, Minneapolis, Minn., USA) and enzyme-linked immunosorbent assay kit for Inhibin Beta E (E90048Hu, Uscn Life Science, Wuhan, Hubei, PRC) according to the manufacturer's instructions. For measuring IL1A and other cytokine concentrations, the sera were subjected to a multiplex suspension array, Bio Plex Pro Human Cytokine Grp II Panel 21-Plex (MF0-005KMII, Bio-Rad, Hercules, Calif., USA). The cytokines measured by use of this array were the following: IL-2Rα, IL-3, IL-12 (p40), IL-16, IL-18, CTACK, GRO-α, HGF, IFN-α2, LIF, MCP-3, M-CSF, MIF, MIG, β-NGF, SCF, SCGF-β, SDF-1α, TNF-β, and TRAIL.
(v) The concentrations of three secreted proteins as candidate biomarkers in cell culture were measured by ELISA and multiplex suspension arrays. […] Other secreted proteins could not be measured under the detection limit.

2SD cells [7] = details: 10 mM, 4 hours after treatment, non-patent document 1; cited from earlier work
[8] = system: mitochondrial disease patients; test: sodium pyruvate therapy for mitochondrial disease patients; type: in vivo, human; details: patients n=10, 0.3 g/kg to 2 g/kg, over seven years
Source text: 4. Study of sodium pyruvate therapy for mitochondrial disease patients For mitochondrial disease patients (n=10), sodium pyruvate (0.3 g/kg to 2 g/kg) had been administered for over seven years. During the period, the transition of
FGF-21 and GDF-15 had been determined and parameters of other therapeutic effects had been investigated. The mitochondrial disease patients contained PDH E1A deficiency, MELAS/cardiomyopathy with A3243G mutation, and MELAS/Leigh syndrome with G13513A mutation in the ND5 gene.

[9] = 10 mM lactate, 8 h vs 0 h after lactate treatment
[10] = lactate vs pyruvate treatment at 8 h

CC(O)C(=O)O (stereo not shown) [lactate, lactic acid]
energy metabolism disorder (2SD cells [1]): remarkable | energy metabolism disorder (2SA cells (control cell) [2]): not observed | energy metabolism disorder (2SA cells (control cell) [3]): not observed | Fold Change L-8/L-0, ADAMTS17 [4, 9]: 3.5 | Fold Change L-8/L-0, ADM2 [4, 9]: 10.3 | Fold Change L-8/L-0, AMTN [4, 9]: 5.0 | Fold Change L-8/L-0, APOL6 [4, 9]: 6.2 | Fold Change L-8/L-0, AREG [4, 9]: 14.0 | Fold Change L-8/L-0, C1QTNF1 [4, 9]: 2.6 | Fold Change L-8/L-0, C12orf39 [4, 9]: 6.3 | Fold Change L-8/L-0, CLEC3B [4, 9]: 2.1 | Fold Change L-8/L-0, CXCL1 [4, 9]: −3.4 | Fold Change L-8/L-0, DKK1 [4, 9]: −2.1 | Fold Change L-8/L-0, ECM2 [4, 9]: 11.8 | Fold Change L-8/L-0, GDF15 [4, 9]: 27.4 | Fold Change L-8/L-0, HECW2 [4, 9]: 2.4 | Fold Change L-8/L-0, IGFALS [4, 9]: 2.3 | Fold Change L-8/L-0, IGFBPI [4, 9]: 2.3 | Fold Change L-8/L-0, IL1A [4, 9]: 7.6 | Fold Change L-8/L-0, IL23A [4, 9]: 4.4 | Fold Change L-8/L-0, INHBE [4, 9]: 15.0 | Fold Change L-8/L-0, MMP3 [4, 9]: 9.8 | Fold Change L-8/L-0, PDGFA [4, 9]: 2.2 | Fold Change L-8/L-0, PDGFB [4, 9]: 2.8 | Fold Change L-8/L-0, PDZRN3 [4, 9]: −2.4 | Fold Change L-8/L-0, SCG5 [4, 9]: 5.2 | Fold Change L-8/L-0, SLC39A10 [4, 9]: −2.3 | Fold Change L-8/L-0, SPOCK2 [4, 9]: 5.1 | Fold Change L-8/L-0, STC2 [4, 9]: 3.4 | Fold Change L-8/L-0, VEGFA [4, 9]: 3.4 | Fold Change L-8/P-8, ADAMTS17 [4, 10]: 2.2 | Fold Change L-8/P-8, ADM2 [4, 10]: 3.0 | Fold Change L-8/P-8, AMTN [4, 10]: 3.9 | Fold Change L-8/P-8, APOL6 [4, 10]: 3.8 | Fold Change L-8/P-8, AREG [4, 10]: 2.2 | Fold Change L-8/P-8, C1QTNF1 [4, 10]: 2.9 | Fold Change L-8/P-8, C12orf39 [4, 10]: 6.7 | Fold Change L-8/P-8, CLEC3B [4, 10]: 2.2 | Fold Change L-8/P-8, CXCL1 [4, 10]: −2.6 | Fold Change L-8/P-8, DKK1 [4, 10]: −2.3 | Fold Change L-8/P-8, ECM2 [4, 10]: 9.0 | Fold Change L-8/P-8, GDF15 [4, 10]: 14.8 | Fold Change L-8/P-8, HECW2 [4, 10]: 2.1 | Fold Change L-8/P-8, IGFALS [4, 10]: 2.5 | Fold Change L-8/P-8, IGFBPI [4, 10]: 2.1 | Fold Change L-8/P-8, IL1A [4, 10]: 6.0 | Fold Change L-8/P-8, IL23A [4, 10]: 2.8 | Fold Change L-8/P-8, INHBE [4, 10]: 9.4 | Fold Change L-8/P-8, MMP3 [4, 10]: 4.2 | Fold Change L-8/P-8, PDGFA [4, 10]: 2.2 | Fold Change L-8/P-8, PDGFB [4, 10]: 3.8 | Fold Change L-8/P-8, PDZRN3 [4, 10]: −2.0 | Fold Change L-8/P-8, SCG5 [4, 10]: 3.0 | Fold Change L-8/P-8, SLC39A10 [4, 10]: −2.9 | Fold Change L-8/P-8, SPOCK2 [4, 10]: 6.6 | Fold Change L-8/P-8, STC2 [4, 10]: 2.6 | Fold Change L-8/P-8, VEGFA [4, 10]: 2.5 | expression level of GDF15 (2SD cells [5]): increased | expression level of IL1A (2SD cells [5]): increased | expression level of INHBE (2SD cells [5]): increased | concentration of GDF15 in culture medium (2SD cells [6]): increased | energy metabolism disorder (2SD cells [7]): remarkable

CC(=O)C(=O)[O-].[Na+] [sodium pyruvate]
concentration of GDF-15 [8]: significantly reduced | concentration of alanine [8]: significantly reduced | concentration of lactate [8]: significantly reduced | concentration of pyruvate [8]: significantly reduced | side effects [8]: no side effects were observed | therapeutic effect [8]: highly effective therapy

CC(=O)C(=O)O [pyruvate, pyruvic acid]
energy metabolism disorder (2SD cells [1]): not observed | expression level of GDF15 (2SD cells [5]): not changed | expression level of IL1A (2SD cells [5]): not changed | expression level of INHBE (2SD cells [5]): not changed | energy metabolism disorder (2SD cells [7]): not observed
